Patent US12629406B2, “Alterations in endothelin receptors following hemorrhage and resuscitation by centhaquin” (MIDWESTERN UNIVERSITY, priority 2018, dated 2026)
Values joined by “and” are separate entries in the source; they are usually repeats but may differ in a detail not shown here. Equal values may be shown once.

How the values were obtained:
[1] = Rat hemorrhagic shock, hypertonic saline resuscitation: hematocrit, arterial blood gases, lactate, base deficit; assay type: in vivo
Method: Animals. Male Sprague-Dawley rats (340 to 380 g) (Envigo, Indianapolis, IN) were housed for at least 4 days in a room with controlled temperature (23±1° C.), humidity (50±10%) and light (6:00 A.M. to 6:00 P.M.) before being used. Food and water were made available continuously. Animal care and use for experimental procedures were approved by the Institutional Animal Care and Use Committee of the Midwestern University. All anesthetic and surgical procedures were in compliance with the guidelines established by the Animal Care Committee.
Determination of arterial blood gases and base deficit. Baseline arterial blood pH, Po2, Pco2, Na^+, K^+ and lactate were monitored prior to induction of shock, 30 minutes after induction of shock, and 30 and 60 minutes following vehicle or centhaquin resuscitation. Blood samples (0.15 ml) were drawn from the arterial cannula using blood gas sampling syringes (Innovative Medical Technologies, Inc. Leawood, K S) and analyzed using a pHOx Ultra analyzer (Nova Biomedical Corporation, Waltham, MA). The base deficit was calculated using the formula (Davis et al. 1998; Paladino et al. 2008): SBD=0.9287×[HCO3^−−24.4+14.83×(pH-7.4)]
Induction of Hemorrhagic Shock. Hemorrhage was induced by withdrawing blood from the femoral artery at a rate of approximately 0.5 to 1 mL/min until a MAP of 35 mmHg was reached. This MAP was maintained for 30 min by further withdrawal of blood, if necessary. The hemorrhagic shock model used in the present study is a well-established rodent model of manageable pressure hemorrhage (Buehler et al. 2000; Gulati et al. 1997a; Gulati and Sen 1998). The volume of blood loss was about approximately 8.0 ml in each rat and was similar in various groups, amounting to approximately 40% of the total blood. Measured hematocrit levels were similar in various groups. The duration of blood withdrawal was approximately 15 minutes.
Experimental design. To determine the resuscitative effect of centhaquin on cardiovascular system and plasma cytokines in hemorrhagic shock, rats were randomly divided into five groups, Group 1: Sham control (Non-hemorrhaged) (n=5), Group 2: Hemorrhage with no resuscitation (n=5); Group 3: Hemorrhage followed by resuscitation with 3% hypertonic saline (vehicle) (n=5); Group 4: Hemorrhage followed by resuscitation with vehicle plus centhaquin (0.017 mg/kg) (n=5); and Group 5: Hemorrhage followed by resuscitation with vehicle plus centhaquin (0.05 mg/kg) (n=5). Resuscitation was started 30 min after induction of hemorrhagic shock as an intravenous infusion (1 mL/min) through femoral vein using an infusion pump (Harvard Apparatus Infusion/Withdrawal Pump, Millis, MA). The blood samples, for biochemical estimations, were collected at 30 minutes of resuscitation and cardiovascular parameters were monitored till 60 minutes after which the animal was sacrificed. The volume of resuscitative solution was kept equal to the volume of blood loss.

[2] = cited from earlier work
[3] = rat fixed pressure blood loss, rabbit uncontrolled bleeding with trauma, pig massive blood loss; cited from earlier work
[4] = 60 min after resuscitation, centhaquin 0.017 mg/kg in 3% saline
[5] = 60 min after resuscitation, centhaquin 0.05 mg/kg in 3% saline
[6] = Baseline, before hemorrhage, centhaquin 0.017 mg/kg group
[7] = Baseline, before hemorrhage, centhaquin 0.05 mg/kg group
[8] = H. Shock, before resuscitation, centhaquin 0.017 mg/kg group
[9] = H. Shock, before resuscitation, centhaquin 0.05 mg/kg group
[10] = centhaquin 0.017 and 0.05 mg/kg

With `Cc1cccc(N2CCN(CCc3ccc4ccccc4n3)CC2)c1` [centhaquin, 2-[2-(4-(3-methyphenyl)-1-piperazinyl)]ethyl-quinoline] the Base-deficit [1, 4] was −12.0±0.2 mEq/L and −12.0 ± 0.2^#Δ mEq/L, the Hematocrit [1, 4] was 21.5 ± 1.8% and the Lactate [1, 4] was 1.9 ± 0.1^#Δ mmol/L. For the same compound, the PCO2 [1, 4] was 26.0 ± 1.6 mmHg, the “arterial blood pH” value [1, 4] was 7.24 ± 0.02^Δ and the pO2 [1, 4] was 131.3 ± 5.4 mmHg. The Base-deficit [1, 5] was −11.6±0.5 mEq/L and −11.6 ± 0.5^#Δ mEq/L, the Hematocrit [1, 5] was 21.3 ± 1.3% and the Lactate [1, 5] was 1.7 ± 0.2^#Δ mmol/L. For the same compound, the PCO2 [1, 5] was 27.3 ± 1.9 mmHg, the “arterial blood pH” value [1, 5] was 7.28 ± 0.01^Δ and the pO2 [1, 5] was 121.3 ± 4.6 mmHg. The Base-deficit [1, 6] was −2.9 ± 0.3 mEq/L, the Hematocrit [1, 6] was 36.8 ± 1.3% and the Lactate [1, 6] was 1.5 ± 0.2 mmol/L. The PCO2 [1, 6] was 33.8 ± 1.2 mmHg, the “arterial blood pH” value [1, 6] was 7.38 ± 0.01 and the pO2 [1, 6] was 125.5 ± 1.9 mmHg. The Base-deficit [1, 7] was −2.8 ± 0.3 mEq/L, the Hematocrit [1, 7] was 39.3 ± 1.6% and the Lactate [1, 7] was 1.8 ± 0.1 mmol/L. The PCO2 [1, 7] was 34.5 ± 2.1 mmHg, the “arterial blood pH” value [1, 7] was 7.38 ± 0.01 and the pO2 [1, 7] was 120.2 ± 1.2 mmHg. For the same compound, the Base-deficit [1, 8] was −15.3 ± 0.4 mEq/L, the Hematocrit [1, 8] was 24.8 ± 1.5 % and the Lactate [1, 8] was 7.6 ± 0.3 mmol/L. For the same compound, the PCO2 [1, 8] was 15.9 ± 0.9 mmHg, the “arterial blood pH” value [1, 8] was 7.23 ± 0.02 and the pO2 [1, 8] was 145.6 ± 1.9 mmHg. The Base-deficit [1, 9] was −15.4 ± 0.9 mEq/L, the Hematocrit [1, 9] was 22.2 ± 0.7 % and the Lactate [1, 9] was 7.4 ± 0.4 mmol/L. For the same compound, the PCO2 [1, 9] was 16.3 ± 1.5 mmHg, the “arterial blood pH” value [1, 9] was 7.25 ± 0.03 and the pO2 [1, 9] was 142.8 ± 1.8 mmHg. For the same compound, the “change in hematocrit after treatment” value [1, 10] was “no change”, the “effect on blood pH of hemorrhaged rats” value [1, 10] was “significantly prevented the reduction of pH” and the “blood lactate levels compared to the hypertonic saline group” value ([1]; centhaquin 0.017 and 0.05 mg/kg, p<0.001) was “significant decrease”. The “effect on hemorrhage-induced decrease in pCO2 and increase in pO2” value ([1]; resuscitation with centhaquin) was “not affected”, the “survival of hemorrhaged rats” value ([2]; administered in one-fifth the volume of blood loss) was “improved the survival” and the blood lactate ([2]; rat model of hemorrhagic shock) was “decreased blood lactate”. For the same compound, the “cardiac output (CO)” value ([2]; rat model of hemorrhagic shock) was “significantly improved CO”, the survival ([2]; rat model of hemorrhagic shock) was “improved survival” and the “mortality following hypovolemic shock” value [3] was “highly effective in reducing the mortality”.
